Earlier results on three substances are cited in PMC2916017 (Journal of biomedical optics, 2009).

In one series the test system is αvβ3–positive tumor. The conditions noted are these: previous work; specific activities 200–500 Ci/mmol.
Another series deals with T1, caspase-3 (Homo sapiens, UniProt P42574).
T1 sequence (P42574 29-175 limits assumed): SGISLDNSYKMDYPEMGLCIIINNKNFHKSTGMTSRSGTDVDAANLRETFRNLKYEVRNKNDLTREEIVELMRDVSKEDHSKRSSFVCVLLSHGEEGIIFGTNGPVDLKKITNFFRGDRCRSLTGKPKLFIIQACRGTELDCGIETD
T1 sequence (P42574 176-277 limits assumed): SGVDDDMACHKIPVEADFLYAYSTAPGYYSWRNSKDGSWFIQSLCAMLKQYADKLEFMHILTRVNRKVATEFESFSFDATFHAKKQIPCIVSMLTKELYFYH
The conditions noted are these: standard substrate, comparison value; no reference given.

In the case of ^64Cu-DOTA-c(RGDyK) (head to tail), the “tumor visualization by small animal PET” value in the series on αvβ3–positive tumor was “receptor specific tumor accumulation allowed for αvβ3–positive tumor visualization by small animal PET”.
By Km is commonly meant the concentration of substrate that gives half-maximal velocity. With Ac-DEVD-pNA, on caspase-3, the Km was 11 µM.
What is called kcat is the maximal rate divided by the concentration of active sites. Take Ac-DEVD-AMC: at caspase-3, the Km is 9.7 µM and the kcat was 0.75 s⁻¹.
